Assay results reported in patent US20250018019A1, “TREATMENT OF INTERFERON DRIVEN INFLAMMATION” (The Provost, Fellows, Foundation Scholars and the other …, priority 2023, published 2025).
Counter-ions that a name gives are not always drawn.

Columns and labels:
BMDMs = assay: RNA sequencing (GSEA, ORA) of BMDMs; format: cell-based, mouse; details: LPS 4 h; for ERK1/2 cascade and PI3K signalling (shared transcriptomic changes) / amino acid metabolism and transport, and autophagy transcripts: BMDMs pre-treated
Protocol: All compounds used DMSO as a vehicle except for 4-hydroxy tamoxifen (EtOH), NAC (PBS), and AOAA for tracing experiments (Media). LPS was used at a concentration of 100 ng/ml for indicated timepoints (2, 3, 4, 6, 8, 24, 48 h). FHIN1 (10 or 20 μM), MMF (50 or 100 μM), DMF (25 μM), AOAA (5 mM), oligomycin (10 μM), CCCP (50 μM) NAC (1 mM), and IMT1 (10 μM) pre-treatments were performed for 3 h prior the addition of LPS. Cells were treated with valinomycin (10 nM) 15 mins before LPS stimulation. Anti-CD210 or IgG control (10 μg/ml) antibodies were added to cells 1 h prior to LPS stimulation. Recombinant mouse IL-10 protein (100 ng/ml) was added to cells at the same time as LPS. Cells were treated with IFN-B1 (220 ng/ml) for 3 h. Cells were treated with C-178 (1 μM) 1 h prior to LPS stimulation or transfection with 2′3′-cGAMP (1.5 μg/ml) for 4 hrs to achieve cGAS-STING activation. Cells were treated with ODN 2088 (1 μM) for 1 hr prior to LPS stimulation or transfection with CPG ODN 1826 (1.5 μg/ml) to achieve TLR9 activation. 3 different timepoints of 4-hydroxy tamoxifen (TAM) (600 nM or 2 μM) or EtOH treatment were performed-these are specified in the individual figure legends. For ‘48 h’ treatments EtOH/TAM was added on day 5 of 6 during the BMDM differentiation protocol. On day 6 they were plated with EtOH/TAM (left overnight) and treated the following day. For ‘72 h’ treatments EtOH/TAM was added on day […] of 6 during the BMDM differentiation protocol. On day 6 they were plated with EtOH/TAM (left overnight) and treated the following day. For ‘96 h’ treatments EtOH/TAM was added on day […] of 6 during the BMDM differentiation protocol. On day 6 they were plated with EtOH/TAM and treated 2 days later.
BMDMs (3 independent mice) were treated as indicated and RNA was extracted as previously detailed. mRNA was extracted from total RNA using poly-T-oligo-attached magnetic beads. After fragmentation, the first strand cDNA was synthesized using random hexamer primers, followed by the second strand cDNA synthesis. The library was checked with Qubit and real-time PCR for quantification and bioanalyzer for size distribution detection. Quantified libraries were pooled and sequenced on the NovaSeq 6000 S4 (Illumina). Differential expression analysis of two conditions/groups was performed using counted reads and the DESeq2 R package^67. Pathway enrichment analyses were performed as indicated in quantification and statistical analysis.
Details of all statistical analyses performed can be found in the figure legends. Data were expressed as mean±standard error of the mean (SEM) unless stated otherwise. Representative western blots are shown. For metabolomics data, MetaboAnalyst 5.0^66 was used to analyse, perform statistics, and visualise the results. Autoscaling of features (metabolites) was used for heatmap generation. One-way ANOVA corrected for multiple comparisons by the Tukey statistical test was used and a p.adjusted<0.05 was set as the cut-off. For proteomics data, protein signal intensity was converted to a log2 scale and biological replicates were grouped by experimental condition. Protein-wise linear models combined with empirical Bayes statistics were used for the differential expression analyses. The Bioconductor package limma was used to carry out the analysis using an R based online tool^68. […] The proteomics cut-offs for analysis were a log2FC of 0.5 and a false discovery rate (FDR)<0.05, determined using t statistics. RNA seq cut-offs were set to log2FC of 1 and an FDR<0.05. Overrepresentation analysis (ORA) of significant changes were assessed using Enrichr^4 and the Bioconductor package clusterProfiler 4.0 in R (version 3.6.1). Further information on this visualisation method is available^69. Emapplots were generated using enrichplot package in R (version 3.6.1). GSEA analysis of RNAseq was performed using the Broad Institutes GSEA 4.1.070. […]

c-Fos = molecular target: T1, c-Fos (Mus musculus, UniProt P01101); assay: c-Fos activity assay (AP1 transcription factor assay on nuclear extracts); format: cell-based; details: BMDMs pre-treated 3 h, LPS 4 h
T1 construct: nuclear extracts were isolated using a Nuclear Extraction Kit; endogenous in cells; host or cells: mouse bone-marrow-derived macrophages (BMDMs), nuclear extract
Protocol: BMDMs from 3 mice were plated in 10 cm dishes at 0.5×10^6 cells/mL and left overnight. Cells were pre-treated with FHIN1 or DMF (3 h) prior to LPS stimulation (4 h). Upon harvesting, nuclear extracts were isolated using a Nuclear Extraction Kit (ab113474) purchased from Abcam. Nuclear extracts were quantified via BCA assay and standardised. c-Fos relative activity was then quantified using the AP1 transcription factor assay purchased from Abcam (Ab207196) according to the manufacturers protocol.

mice = assay: LPS-induced inflammation model, serum IFN-β; format: in vivo, mouse; details: 50 mg/kg intraperitoneally 1 hour before LPS 2.5 mg/kg, blood 2 hours later
Protocol: 6-week-old male mice were used, and littermates were randomly assigned to experimental groups. Compounds were resuspended in 10% DMSO followed by 90% cyclodextrin/PBS (20% w/v). Mice were injected intraperitoneally with vehicle, FHIN1 or DMF (both 50 mg/kg) at a volume of 200 μl per injection. 1 hour later, mice were injected intraperitoneally with PBS or LPS from E. coli (2.5 mg/kg, Sigma) at a volume of 100 μl per injection. 2 hours later, mice were euthanised and blood was harvested retro-orbitally. Blood was allowed to clot for 30 mins at room temperature before it was centrifuged at 5000×g for 10 mins at 4° C. The serum was removed and IFN-β concentration was determined by ELISA. DuoSet ELISA kits for IL-1β, TNFα, IL-6, IL-10, and GDF15 were purchased from R&D Systems and were carried out according to the manufacturer's instructions with appropriately diluted cell supernatants added to each plate in duplicate or triplicate. IFN-β was determined using DuoSet ELISA kit from R&D Systems or Abcam (ab252363). […] Absorbance at 450 nm was quantified using a FLUOstar Optima plate reader. Corrected absorbance values were calculated by subtracting the background absorbance, and cytokine concentrations were subsequently obtained by extrapolation from a standard curve plotted on GraphPad Prism 9.2.0.

T1 sequence (P01101 whole entry): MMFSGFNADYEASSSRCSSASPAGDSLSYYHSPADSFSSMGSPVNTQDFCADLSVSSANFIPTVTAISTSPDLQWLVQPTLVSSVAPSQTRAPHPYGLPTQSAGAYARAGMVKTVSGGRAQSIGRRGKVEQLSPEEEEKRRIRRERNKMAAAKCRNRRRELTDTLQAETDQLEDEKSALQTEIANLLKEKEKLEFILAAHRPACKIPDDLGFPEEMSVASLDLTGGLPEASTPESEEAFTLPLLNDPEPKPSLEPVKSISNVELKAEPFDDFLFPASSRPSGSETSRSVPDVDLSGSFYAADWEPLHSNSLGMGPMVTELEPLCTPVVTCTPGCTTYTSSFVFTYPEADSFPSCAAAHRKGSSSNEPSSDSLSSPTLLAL
T1 sequence (P05627 whole entry partner): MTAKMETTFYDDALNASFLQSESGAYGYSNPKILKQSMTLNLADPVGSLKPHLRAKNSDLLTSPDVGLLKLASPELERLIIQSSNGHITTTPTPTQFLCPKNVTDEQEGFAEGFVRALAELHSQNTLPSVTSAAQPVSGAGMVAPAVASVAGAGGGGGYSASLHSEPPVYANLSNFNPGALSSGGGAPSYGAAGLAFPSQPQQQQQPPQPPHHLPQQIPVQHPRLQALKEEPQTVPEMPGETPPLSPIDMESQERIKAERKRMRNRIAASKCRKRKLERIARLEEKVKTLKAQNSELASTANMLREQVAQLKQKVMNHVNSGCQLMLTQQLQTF

COC(=O)/C=C/C(=O)OC [DMF, dimethyl fumarate]
Fos expression (RNA seq) (BMDMs; BMDMs pre-treated vs DMSO): not reduced | Jun expression (RNA seq) (BMDMs; BMDMs pre-treated vs DMSO): reduced | other ISGs, such as Lcn2 (RNAseq) (BMDMs; BMDMs pre-treated vs DMSO): suppressed | ERK1/2 cascade and PI3K signalling (shared transcriptomic changes) (BMDMs): strong downregulation | amino acid metabolism and transport, and autophagy transcripts (BMDMs): increased | c-Fos activation (c-Fos): strongly impaired | LPS-induced IFN-β release into the serum (mice): no effect

CCOC(=O)[C@@]12CCCC=C1N(Cc1ccc(-c3ccccc3)cc1)C(=O)[C@H]2CC(=O)NC [FHIN1, Fumarate hydratase-IN-1]
Fos expression (RNA seq) (BMDMs; BMDMs pre-treated vs DMSO): not reduced | Ifnb1 (IFN-β) expression and several interferon-stimulated genes (Irf1, Ifih1, Rsad2, Ifit2), RNAseq (BMDMs; BMDMs pre-treated vs DMSO): upregulation | Jun expression (RNA seq) (BMDMs; BMDMs pre-treated vs DMSO): reduced | NRF2 and ATF4 stress response (BMDMs; BMDMs pre-treated vs DMSO): activation | TNF-α signalling (overrepresentation analysis of RNAseq) (BMDMs; BMDMs pre-treated vs DMSO): most highly upregulated pathway | expression of HRI stress response, amino acid metabolism and tRNA aminoacylation (GSEA) (BMDMs; BMDMs pre-treated vs DMSO): Increased expression | expression of inflammatory pathways, including IL-1 and IL-10 signalling (GSEA) (BMDMs; BMDMs pre-treated vs DMSO): decreased | genes associated with metabolism (GSEA) (BMDMs; BMDMs pre-treated vs DMSO): suppression | other ISGs, such as Lcn2 (RNAseq) (BMDMs; BMDMs pre-treated vs DMSO): suppressed | ERK1/2 cascade and PI3K signalling (shared transcriptomic changes) (BMDMs): strong downregulation | amino acid metabolism and transport, and autophagy transcripts (BMDMs): increased | c-Fos activation (c-Fos): strongly impaired | LPS-induced IFN-β release into the serum (mice): increased
